Key:
[1] = test system: House Dust Mite (HDM)-induced Asthma; assay: Murine model of House Dust Mite (HDM)-induced asthma; type: in vivo, mouse; settings: day 6; about 100,000 cells/ml without peptide
Procedure: FIG. 11 provides a graph showing that the ASI peptide inhibits inflammation in a murine model of experimental House Dust Mite (HDM)-induced Asthma. The white blood cell count was about 100,000 cells/ml when IL-17 was used alone, but dropped to about 10,000 cells/ml when ASI peptide was used together with IL-17. […] Ears from C57B1/6 mice (n=3 for each group) were injected daily with PBS, IL-17 with or without ASI. On day 7, ears were collected for staining with H&E and real-time analysis of gene expression.

[2] = test system: IL-17-induced inflammation in mouse ear skin; assay: IL-17-induced inflammation in mouse ear skin; type: in vivo; settings: C57B1/6 mice, daily injection
Procedure: Ears from C57B1/6 mice (n=3 for each group) were injected daily with PBS, IL-17 with or without ASI. On day 7, ears were collected for staining with H&E and real-time analysis of gene expression.

[3] = test system: IL-25-dependent signaling; assay: IL-25-dependent signaling in MEFs by Western blotting (pIκB, pJNK, pERK, pp38 MAPK); type: cell-based, mouse; settings: MEFs expressing IL-17RB, peptides 200 μM, 24 hours
Procedure: FIG. 4 provides data showing that a cell-permeable CC′ loop decoy peptide disrupts the interaction between Act1 and IL-17RA and inhibits IL-17R and IL-25R signaling. FIG. 4A provides sequences of Antennapedia homeodomain (Antp) (SEQ ID NO: 11)and decoy peptides (SEQ ID NOS 23-25 and 17, respectively, in order of appearance) with the Antp sequence underlined. FIG. 4B provides flow cytometry results based on experiments in which MEFs expressing IL-17RB were incubated for 2 or 24 hours with the indicated FITC-tagged peptides (200 μM) and were then analyzed by flow cytometry. […] The percentages of FITC-positive cells in the treated samples are shown. FIG. 4C provides Western blot results of experiments in which HeLa cells were cotransfected with plasmids encoding FLAG-tagged mAct1 and V5-tagged IL-17RA and were cultured for 24 hours, after which they were incubated for 24 hours with the indicated peptides (200 μM). IL-17RA was immunoprecipitated from the samples with antibody against the V5 tag, and samples were then subjected to Western blotting analysis with the indicated antibodies. FIG. 4D provides Western blot results of experiments in which MEFs expressing IL-17RB were incubated with the indicated peptides (200 μM) for 24 hours after which they were treated with IL-17 or IL-25 and then analyzed by Western blotting with the indicated antibodies. FIG. 4E provides bar graphs showing the results of experiments in which MEFs expressing IL-17RB were incubated with the indicated peptides (200 μM) for 24 hours, after which they were treated with IL-17 or IL-25 for 3 hours. The abundances of Cxcl1 and Il13 mRNAs were then measured by real-time RT-PCR. […]
(§1) Decoy peptides are based on surface-exposed regions of the primary sequence of a protein to mimic a putative interaction interface. […] These decoy peptides were also tagged at their C-termini with fluorescein isothiocyanate (FITC) to enable their cell-penetrating efficiency to be evaluated by flow cytometric sanalysis. […]

[4] = test system: IL-25-mediated expression of Il13; assay: IL-25-mediated Il13 mRNA expression in MEFs, real-time RT-PCR; type: cell-based, mouse; settings: peptides 200 μM for 24 hours, then IL-25 for 3 hours
Procedure: (§2) FIG. 4 provides data showing that a cell-permeable CC′ loop decoy peptide disrupts the interaction between Act1 and IL-17RA and inhibits IL-17R and IL-25R signaling. FIG. 4A provides sequences of Antennapedia homeodomain (Antp) (SEQ ID NO: 11)and decoy peptides (SEQ ID NOS 23-25 and 17, respectively, in order of appearance) with the Antp sequence underlined. FIG. 4B provides flow cytometry results based on experiments in which MEFs expressing IL-17RB were incubated for 2 or 24 hours with the indicated FITC-tagged peptides (200 μM) and were then analyzed by flow cytometry. […] The percentages of FITC-positive cells in the treated samples are shown. […] FIG. 4D provides Western blot results of experiments in which MEFs expressing IL-17RB were incubated with the indicated peptides (200 μM) for 24 hours after which they were treated with IL-17 or IL-25 and then analyzed by Western blotting with the indicated antibodies. […] The abundances of Cxcl1 and Il13 mRNAs were then measured by real-time RT-PCR. […]
as §1

[5] = test system: IL-17-mediated expression of Cxcl1; assay: IL-17-mediated Cxcl1 mRNA expression in MEFs, real-time RT-PCR; type: cell-based, mouse; settings: peptides 200 μM for 24 hours, then IL-17 for 3 hours
Procedure: as §2, §1

IL-17RA SEFIR domain = target: T1, IL-17RA SEFIR domain (Homo sapiens, UniProt Q96F46); assay: SPR binding of peptides to immobilized IL-17RA SEFIR domain; settings: sensor-immobilized IL-17RA SEFIR, Biacore 3000
T1 construct: IL17RA-SEFIR, amino acid residues 351 to 616; 6xHis (N, cleaved yes); TEV recognition site (ENLYFQG) (N, cleaved yes); made in house
T1 sequence (Q96F46 351-616): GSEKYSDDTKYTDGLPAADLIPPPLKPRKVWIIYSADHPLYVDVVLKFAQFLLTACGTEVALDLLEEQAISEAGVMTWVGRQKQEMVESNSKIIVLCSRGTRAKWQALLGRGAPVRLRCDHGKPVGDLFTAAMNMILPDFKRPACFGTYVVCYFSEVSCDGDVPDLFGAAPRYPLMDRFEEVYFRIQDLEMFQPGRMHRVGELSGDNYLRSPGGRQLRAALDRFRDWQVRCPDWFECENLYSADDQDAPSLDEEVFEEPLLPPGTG
Description: The Cins helix and the CC′ loop are distinct putative surface-exposed sequences in the SEFIR3 segment of Act1. To determine whether the Cins helix and the CC′ loop interacted with IL-17RA, surface plasmon resonance (SPR) was used to test peptides derived from Cins (SPKYKQDVEGAESQ) (SEQ ID NO: 19) and the CC′ loop (LDEDEHGLHTKY) (SEQ ID NO: 5) for their ability to bind to the IL-17RA SEFIR domain. As expected, the recombinant Act1 SEFIR domain bound to the sensor-immobilized SEFIR of IL-17RA.
Expression and purification of IL-17RA and mAct1-SEFIR proteins: The cDNA encoding a SEFIR domain-containing fragment of human IL17RA (IL17RA-SEFIR, amino acid residues 351 to 616) was subcloned into a modified pET-28 vector, with a N-terminal 6×His tag (SEQ ID NO: 18)and a tobacco etch virus protease (TEV) recognition site (ENLYFQG) (SEQ ID NO: 21 )). The IL17RA SEFIR domain was expressed and purified by double-Nickel-Nitrilotriacetic Acid (Ni-NTA) affinity methods as previously described. Deng et al., Acta Crystallogr D Biol Crystallogr 60:203-204 (2004). The His-tag was subsequently removed from the eluted fusion protein by rTEV, and IL17RA-SEFIR was further purified as flow-through material from a second subtracting Ni-NTA column. Size-exclusion chromatography on a superdex s200 HR high resolution column was used as a final step for purification. The cDNA encoding a SEFIR domain containing a fragment of mouse Act1 (mAct1-SEFIR, residues 391 to 537) was subcloned into a modified pET28b vector that expresses maltose-binding protein (MBP) with an N-terminal 6×His tag (SEQ ID NO: 18) and a C-terminal TEV recognition site. Recombinant mAct1-SEFIR was expressed and purified as previously described. Deng et al., Proc Natl Acad Sci USA 105:1499-1504 (2008). The His-tagged MBP moiety was cleaved from the fusion protein by rTEV after the first Ni-NTA column purification. Recombinant mAct1-SEFIR was subsequently collected as flow-through from a second subtracting Ni-NTA column.
SPR analysis: Binding of purified Act1 SEFIR domain or peptides to IL-17RA was conducted on a Biacore 3000. Purified IL-17RA SEFIR domain was immobilized on a CM5 sensor chip in 10 mM acetic acid (pH 4.5). Purified Act1 SEFIR domain or peptides were allowed to flow over the chip in a buffer of 10 mM Hepes (pH 7.4), 150 mM NaCl, and 0.005% surfactant P20. The chip was regenerated with 1 M NaCl. Binding KD values were determined by Biaevaluation software.

ASI peptide: the CC′ loop decoy peptide (SEQ ID NO: 5) (LDEDEHGLHTKY)
white blood cell count in BAL [1]: about 10,000 cells/ml | epidermal thickness and inflammation of ear skin (H&E) ([2]; day 7): inhibits IL-17-induced inflammation | inflammatory gene expression in ear skin (bar graphs) ([2]; day 7, real-time analysis): counteracted the inflammatory results of IL-17

Act1 SEFIR domain BB′ loop peptide: cell-permeable decoy peptide: BB′ loop sequence of Act1 SEFIR domain fused to C-terminus of Antp (DRQIKIWFQNRRMKWKKEDRIRGID) [reference compound]
IL-25-dependent signaling (pIκB, pJNK, pERK, pp38 MAPK) [3]: but not the Act1 SEFIR domain BB′ loop peptide, partly attenuated | inhibition of IL-25-mediated expression of Il13 [4]: no effect | inhibition of IL-17-mediated expression of Cxcl1 [5]: no effect

EDRIRGID (listed as Mus sp.) [peptide derived from the BB′ loop, reference compound]
binding to the IL-17RA SEFIR domain (SPR) (IL-17RA SEFIR domain): did not bind

LDEDEHGLHTKY [CC′ loop peptide]
binding to the IL-17RA SEFIR domain (SPR) (IL-17RA SEFIR domain): bound to the IL-17RA SEFIR

SPKYKQDVEGAESQ [Cins peptide, reference compound]
binding to the IL-17RA SEFIR domain (SPR) (IL-17RA SEFIR domain): but not the Cins peptide, bound to the IL-17RA SEFIR

B1: recombinant Act1 SEFIR domain: SEFIR domain containing fragment of mouse Act1, residues 391 to 537 (protein)
chain: RKVFITYSMDTAMEVVKFVNFLLVNGFQTAIDIFEDRIRGIDIIKWMERYLRDKTVMIIVAISPKYKQDVEGAESQLDEDEHGLHTKYIHRMMQIEFISQGSMNFRFIPVLFPNAKKEHVPTWLQNTHVYSWPKNKKNILLRLLREE
binding to the IL-17RA SEFIR domain (SPR) (IL-17RA SEFIR domain): bound

Source: patent US9611295B2, “Treatment of IL-17 mediated disease by blocking SEFIR-SEFIR interactions” (THE CLEVELAND CLINIC FOUNDATION, priority 2011, dated 2017)
